The target of data set [1] is T1, human sEH (Homo sapiens, UniProt P34913).
T1 sequence (P34913 1-555): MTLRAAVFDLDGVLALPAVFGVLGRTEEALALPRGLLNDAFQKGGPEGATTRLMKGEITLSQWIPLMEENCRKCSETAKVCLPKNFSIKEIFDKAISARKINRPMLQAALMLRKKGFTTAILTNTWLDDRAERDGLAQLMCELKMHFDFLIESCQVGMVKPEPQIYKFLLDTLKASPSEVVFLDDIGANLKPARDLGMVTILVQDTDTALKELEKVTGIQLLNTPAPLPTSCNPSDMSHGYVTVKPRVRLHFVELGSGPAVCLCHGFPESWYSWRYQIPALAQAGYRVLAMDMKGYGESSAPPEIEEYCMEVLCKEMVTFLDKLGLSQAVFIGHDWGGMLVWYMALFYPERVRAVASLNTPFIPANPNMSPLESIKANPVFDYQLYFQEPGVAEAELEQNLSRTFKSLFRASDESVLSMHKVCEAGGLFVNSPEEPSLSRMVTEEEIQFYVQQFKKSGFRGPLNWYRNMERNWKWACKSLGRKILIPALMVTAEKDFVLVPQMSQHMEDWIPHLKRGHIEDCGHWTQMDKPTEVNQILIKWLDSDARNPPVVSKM
Put plainly: kinetic fluorescent assay of sEH inhibitory potency. The format is biochemical. The following applies: for fold drop of activity compared to 3a: ratio of IC50 to that of 3a; for fold increase of activity compared to 3a: ratio of IC50 of 3a to that of the compound.

Data set [2] in a line: experimental LogP by HPLC-MS. Type of data set: physicochemical.
Data set [3] can be described thus: solubility in sodium phosphate buffer. The following applies: pH 7.4, aqueous buffer, kinetic from dmso stock. Type of data set: physicochemical.

≈ marks a conversion by molar mass, not a printed value.

This note sets out measurements from publication PMC7055688 (Journal of fluorine chemistry, 2019).

In general, chromatographic logP refers to lipophilicity estimated from chromatographic retention. Low values mean a more hydrophilic compound, high ones a more lipophilic compound. In general, solubility refers to the concentration that dissolves in the medium under given conditions. High values mean a readily soluble substance, low ones a poorly soluble substance. Take `CC(NC(=O)Nc1ccccc1F)C12CC3CC(CC(C3)C1)C2` (stereo not shown) [3c, 1-[1-(Adamantan-1-yl)ethyl]-3-(2-fluorophenyl) urea]: the “fold drop of activity compared to 3a” value in data set [1] turned out to be 15 fold. Also, in data set [2], the chromatographic logP is 4.75. Besides, the solubility in data set [3] is 50 to 60 µM (≈ 15.8 to 19 µg/mL).

As to `CC12CC3CC(C1)CC(NC(=O)Nc1ccccc1F)(C3)C2` [3f, 1-[3-methyl(Adamantan-1-yl)]-3-(2-fluorophenyl) urea], the “fold increase of activity compared to 3a” value in data set [1] came out at 2.5 fold. This molecule also came in with a solubility in data set [3] of 50 to 60 µM (≈ 15.1 to 18.1 µg/mL).

Take `O=C(Nc1ccc(C23CC4CC(CC(C4)C2)C3)cc1)Nc1ccccc1F` [3e, 1-[4-(Adamantan-1-yl)phenyl]-3-(2-fluorophenyl) urea]: the solubility in data set [3] fell in the range of 80 to 90 µM (≈ 29.2 to 32.8 µg/mL).

Consider `O=C(NCC12CC3CC(CC(C3)C1)C2)Nc1ccccc1F` [3b, 1-[(Adamantan-1-yl)methyl]-3-(2-fluorophenyl) urea], for which, in data set [2], the chromatographic logP was 4.4. The molecule also returned a solubility in data set [3] of 60 to 70 µM (≈ 18.1 to 21.2 µg/mL).

For `O=C(Nc1ccccc1F)NC12CC3CC(CC(C3)C1)C2` [3a, 1-(Adamantan-1-yl)-3-(2-fluorophenyl) urea], in data set [1], the “fold more active than 2-hydroxy substituted analog” value is 37 fold and the “fold more active than unsubstituted 1-(adamantan-1-yl)-3-phenyl urea” value was 4 fold. Further, the solubility in data set [3] was 70 to 80 µM (≈ 20.2 to 23.1 µg/mL).

`CCCC(CNC(=O)Nc1ccccc1F)C1C2CC3CC(C2)CC1C3` (stereo not shown) [3j, 1-[2-(Adamantan-2-yl)pentane-1-yl]-3-(2-fluorophenyl) urea] had a chromatographic logP in data set [2] of 6.55.

Regarding `CC12CC3(C)CC(C)(C1)CC(NC(=O)Nc1ccccc1F)(C2)C3` [3h, 1-[3,5,7-trimethyl(Adamantan-1-yl)]-3-(2-fluorophenyl) urea], in data set [1], the “fold drop of activity compared to 3a” value turned out to be 25 fold. The solubility in data set [3] is 70 to 80 µM (≈ 23.1 to 26.4 µg/mL).

`CCC(CC12CC3CC(CC(C3)C1)C2)NC(=O)Nc1ccccc1F` (stereo not shown) [3d, 1-[1-(Adamantan-1-yl)butane-2-yl]-3-(2-fluorophenyl) urea]: in data set [1], the “fold drop of activity compared to 3a” value is recorded as 170 fold. For the same molecule, the chromatographic logP in data set [2] worked out at 5.8. In data set [3], this molecule gave a solubility of 50 to 60 µM (≈ 17.2 to 20.7 µg/mL).

For the molecule `O=C(Nc1ccccc1F)NC1C2CC3CC(C2)CC1C3` (stereo not shown) [3i, 1-(Adamantan-2-yl)-3-(2-fluorophenyl) urea], the “fold increase of activity compared to 3a” value in data set [1] came out at 3.7 fold. The same molecule had a solubility in data set [3] of 80 to 90 µM (≈ 23.1 to 26 µg/mL).
